Values quoted from earlier work as cited in patent US9402907B2, “Pharmaceutical composition containing diamine derivative” (DAIICHI SANKYO COMPANY, LIMITED, priority 2011, dated 2016).
Where two headings read alike, the source gives them in different places.

solubility (aqueous solution having a pH in the neutral region (e.g., a neutral buffer)): reduced solubility
solubility (strongly acidic aqueous solution): favorable solubility
Structure (SMILES): CN1CCc2nc(C(=O)N[C@@H]3C[C@@H](C(=O)N(C)C)CC[C@@H]3NC(=O)C(=O)Nc3ccc(Cl)cn3)sc2C1 [Compound I, N^1-(5-chloropyridin-2-yl)-N^2-((1S,2R,4S)-4-[(dimethylamino)carbonyl]-2-{[(5-methyl-4,5,6,7-tetrahydrothiazolo[5,4-c]pyridin-2-yl)carbonyl]amino}cyclohexyl)ethanediamide]
